From patent US20230122249A1, “1H-PYRAZOLO[4,3-d]PYRIMIDINE COMPOUNDS AS TOLL-LIKE RECEPTOR 7 (TLR7) AGONISTS” (BRISTOL-MYERS SQUIBB COMPANY, priority 2020, published 2023)
pEC50: −log10 of the molar value.

biological target: T1, human TLR7 (Homo sapiens, UniProt Q9NYK1); experiment: Human TLR7 agonist activity (hTLR7 reporter) assay in HEK-Blue TLR7 cells, SEAP readout; assay type: cell-based; details: 18 h treatment, average where assay repeated
T1 construct: host or cells: HEK-Blue TLR7 cells (engineered human embryonic kidney cells)
T1 sequence (Q9NYK1 27-1049): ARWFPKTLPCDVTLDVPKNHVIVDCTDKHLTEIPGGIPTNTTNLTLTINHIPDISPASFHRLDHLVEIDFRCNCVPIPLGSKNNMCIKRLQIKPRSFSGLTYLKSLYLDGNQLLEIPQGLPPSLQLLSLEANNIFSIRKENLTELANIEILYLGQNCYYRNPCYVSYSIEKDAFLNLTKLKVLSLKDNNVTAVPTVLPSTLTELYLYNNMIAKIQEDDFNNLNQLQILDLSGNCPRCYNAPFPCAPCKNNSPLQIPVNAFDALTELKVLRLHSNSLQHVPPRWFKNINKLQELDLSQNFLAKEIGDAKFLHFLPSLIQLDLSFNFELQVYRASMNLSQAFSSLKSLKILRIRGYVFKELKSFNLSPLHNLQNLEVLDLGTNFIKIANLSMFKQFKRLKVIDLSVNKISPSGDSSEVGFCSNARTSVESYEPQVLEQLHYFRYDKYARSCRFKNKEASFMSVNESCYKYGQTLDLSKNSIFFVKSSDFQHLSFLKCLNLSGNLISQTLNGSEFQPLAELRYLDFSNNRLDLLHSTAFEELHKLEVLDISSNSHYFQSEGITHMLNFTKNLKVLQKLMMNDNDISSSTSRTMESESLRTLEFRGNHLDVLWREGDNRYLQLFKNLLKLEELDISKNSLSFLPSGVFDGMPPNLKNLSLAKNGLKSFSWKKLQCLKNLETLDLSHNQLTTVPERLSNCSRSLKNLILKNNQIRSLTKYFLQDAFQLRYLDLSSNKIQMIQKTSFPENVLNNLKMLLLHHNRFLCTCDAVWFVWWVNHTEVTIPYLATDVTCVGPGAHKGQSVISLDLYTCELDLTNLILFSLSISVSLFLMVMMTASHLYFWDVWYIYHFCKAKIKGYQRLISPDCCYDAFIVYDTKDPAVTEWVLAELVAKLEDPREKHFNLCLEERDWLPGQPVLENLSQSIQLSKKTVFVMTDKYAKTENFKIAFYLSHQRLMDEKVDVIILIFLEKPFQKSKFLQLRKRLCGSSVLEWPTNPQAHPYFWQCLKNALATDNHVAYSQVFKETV
Experimental: This procedure describes a method for assaying human TLR7 (hTLR7) agonist activity of the compounds disclosed in this specification.
HEK-Blue™ TLR7 cells were added to each well of a 384-well tissue-culture plate (15,000 cells per well) and incubated 16-18 h at 37° C., 5% CO2. Compounds (100 nl) were dispensed into wells containing the HEK-Blue™ TLR cells and the treated cells were incubated at 37° C., 5% CO2. After 18 h treatment ten microliters of freshly-prepared Quanti-Blue™ reagent (Invivogen) was added to each well, incubated for 30 min (37° C., 5% CO2) and SEAP levels measured using an Envision plate reader (OD=620 nm). The half maximal effective concentration values (EC50; compound concentration which induced a response halfway between the assay baseline and maximum) were calculated.

Row | SMILES | pEC50
1 | COc1cc(CNC2CCC2)ccc1Cn1ncc2nc(N)nc(NCC3CC4(C3)CC4F)c21 (mixture of isomers) [Compound 115] | 7.08
2 | COc1cc(CNC2CCC2)ccc1Cn1ncc2nc(N)nc(NCC3CC4(C3)CC4(F)F)c21 (mixture of isomers) [Compound 136] | 7.17
3 | CCC[C@@H](CCO)Nc1nc(N)nc2cnn(Cc3ccc(CN4CC5(C4)CN(C(C)=O)C5)cc3OC)c12 [Compound 101] | 7.49
4 | CCCCNc1nc(N)nc2cnn(Cc3ccc(CN4CC5(C4)CC(F)(F)C5)cc3OC)c12 [Compound 102] | 7.02
5 | CCCCNc1nc(N)nc2cnn(Cc3ccc(CN4CC5(COC5)C4)cc3OC)c12 [Compound 103] | 7.20
6 | CCCCNc1nc(N)nc2cnn(Cc3ccc(CN4CC5(C4)CN(C(=O)CC(C)C)C5)cc3OC)c12 [Compound 104] | 6.86
7 | CCCCNc1nc(N)nc2cnn(Cc3ccc(CN4CC5(C4)CN(C(=O)C(C)(C)C)C5)cc3OC)c12 [Compound 105] | 7.22
8 | CCC[C@@H](CCO)Nc1nc(N)nc2cnn(Cc3ccc(CN4CC5(C4)CN(C(=O)C4CCC4)C5)cc3OC)c12 [Compound 106] | 7.94
9 | CCC[C@@H](CCO)Nc1nc(N)nc2cnn(Cc3ccc(CN4CC5(C4)CN(C(=O)C4(C)CC4)C5)cc3OC)c12 [Compound 107] | 8.18
10 | COc1cc(CN2CC3(C2)CN(C(C)=O)C3)ccc1Cn1ncc2nc(N)nc(NCC3CC4(CC4)C3)c21 [Compound 108] | 7.30
11 | COc1cc(CN2CC3(C2)CN(C(C)=O)C3)ccc1Cn1ncc2nc(N)nc(NCC3CC34CC4)c21 (stereo not shown) [Compound 109] | 5.91
12 | CCCCNc1nc(N)nc2cnn(Cc3ccc(CN4CC5(C4)CN(C(=O)C4CCC4)C5)cc3OC)c12 [Compound 110] | 7.50
13 | CCCCNc1nc(N)nc2cnn(Cc3ccc(CN4CC5(C4)CN(C(=O)C4(C)CC4)C5)cc3OC)c12 [Compound 111] | 7.28
14 | CCC[C@@H](CCO)Nc1nc(N)nc2cnn(Cc3ccc(CN4CC5(CCO5)C4)cc3OC)c12 [Compound 112] | 8.82
15 | CCC[C@@H](CCO)Nc1nc(N)nc2cnn(Cc3ccc(CN4CC5(CCOCC5)C4)cc3OC)c12 [Compound 113] | 8.34
16 | CCC[C@@H](CCO)Nc1nc(N)nc2cnn(Cc3ccc(CNC4CCOCC45CCC5)cc3OC)c12 (stereo partly shown) [Compound 114] | 8.47
17 | COc1cc(CNC2CCOCC2)ccc1Cn1ncc2nc(N)nc(NCC3CC4(C3)CC4F)c21 (stereo not shown) [Compound 116] | 6.79
18 | COc1cc(CN2C[C@H]3CN(C)C[C@H]3C2)ccc1Cn1ncc2nc(N)nc(NCC3CC4(C3)CC4F)c21 (stereo partly shown) [Compound 118] | 6.86
19 | COc1cc(CN2CC3(CN(C)C3)C2)ccc1Cn1ncc2nc(N)nc(NCC3CC4(C3)CC4F)c21 (stereo not shown) [Compound 120] | 6.58
20 | COc1cc(CN2CC3(C2)CN(C(C)=O)C3)ccc1Cn1ncc2nc(N)nc(NCC3CC4(C3)CC4(F)F)c21 (stereo not shown) [Compound 122] | 6.62

Row | SMILES | pEC50
21 | COc1cc(CN2CC3(C2)CN(C(C)C2(C)CC2)C3)ccc1Cn1ncc2nc(N)nc(NCC3CC4(C3)CC4(F)F)c21 (stereo not shown) [Compound 123] | 6.50
22 | COc1cc(CN2C[C@@H]3C[C@H]2CN3)ccc1Cn1ncc2nc(N)nc(NCC3CC4(C3)CC4F)c21 (stereo partly shown) [Compound 124] | 6.71
23 | COc1cc(CN2C[C@H]3C[C@@H]2CN3C)ccc1Cn1ncc2nc(N)nc(NCC3CC4(C3)CC4F)c21 (stereo partly shown) [Compound 125] | 7.23
24 | COc1cc(CN2C[C@H]3CNC[C@H]3C2)ccc1Cn1ncc2nc(N)nc(NCC3CC4(C3)CC4F)c21 (stereo partly shown) [Compound 126] | 6.61
25 | COc1cc(CN2CC3(C2)CN(C(=O)C2(C)CC2)C3)ccc1Cn1ncc2nc(N)nc(NCC3CC4(C3)CC4F)c21 (stereo not shown) [Compound 128] | 6.46
26 | COc1cc(CNC2CCC2)ccc1Cn1ncc2nc(N)nc(NCC3CC4(CC4)C3)c21 [Compound 129] | 7.61
27 | COc1cc(CNC2CCOCC2)ccc1Cn1ncc2nc(N)nc(NCC3CC4(CC4)C3)c21 [Compound 130] | 7.40
28 | COc1cc(CN2C[C@H]3C[C@@H]2CN3C)ccc1Cn1ncc2nc(N)nc(NCC3CC4(CC4)C3)c21 [Compound 134] | 7.78
29 | COc1cc(CN2CC3(CCOCC3)C2)ccc1Cn1ncc2nc(N)nc(NCC3CC4(CC4)C3)c21 [Compound 135] | 7.16
30 | COc1cc(CNC2CCOCC2)ccc1Cn1ncc2nc(N)nc(NCC3CC4(C3)CC4(F)F)c21 (stereo not shown) [Compound 137] | 7.06
31 | COc1cc(CN2CC3(CN(C)C3)C2)ccc1Cn1ncc2nc(N)nc(NCC3CC4(C3)CC4(F)F)c21 (stereo not shown) [Compound 138] | 6.61
32 | COc1cc(CN2C[C@H]3CNC[C@H]3C2)ccc1Cn1ncc2nc(N)nc(NCC3CC4(C3)CC4(F)F)c21 (stereo partly shown) [Compound 140] | 6.36
33 | COc1cc(CN2C[C@H]3C[C@@H]2CN3C)ccc1Cn1ncc2nc(N)nc(NCC3CC4(C3)CC4(F)F)c21 (stereo partly shown) [Compound 142] | 7.30
34 | COc1cc(CN2CC3(CC(O)C3)C2)ccc1Cn1ncc2nc(N)nc(NCC3CC4(C3)CC4(F)F)c21 (stereo not shown) [Compound 143] | 6.99
35 | COc1cc(CN2CC3(CC(OC)C3)C2)ccc1Cn1ncc2nc(N)nc(NCC3CC4(C3)CC4(F)F)c21 (stereo not shown) [Compound 144] | 7.16
36 | COc1cc(C(=O)N2CC3(CC(O)C3)C2)ccc1Cn1ncc2nc(N)nc(NCC3CC4(C3)CC4(F)F)c21 (stereo not shown) [Compound 160] | 5.59
37 | COc1cc(C(=O)N2CCOCC2)ccc1Cn1ncc2nc(N)nc(NCC3CC4(C3)CC4(F)F)c21 (stereo not shown) [Compound 161] | 6.45
38 | COc1cc(C(=O)N(C)C)ccc1Cn1ncc2nc(N)nc(NCC3CC4(C3)CC4(F)F)c21 (stereo not shown) [Compound 162] | 6.30
39 | COc1cc(C(=O)NC2CCN(C)CC2)ccc1Cn1ncc2nc(N)nc(NCC3CC4(C3)CC4(F)F)c21 (stereo not shown) [Compound 164] | 6.19
40 | COc1cc(C(=O)N2CCN(C)CC2)ccc1Cn1ncc2nc(N)nc(NCC3CC4(C3)CC4(F)F)c21 (stereo not shown) [Compound 165] | 6.83

system: CD69 in human whole blood; experiment: Induction of CD69 in human whole blood (hWB); assay type: cell-based; details: heparinized human whole blood, 17 h, CD69 surface staining; 100% set to 1 uM resiquimod; average where assay repeated
Experimental: The induction of Type I interferon (IFN) MX-1 genes and the B-cell activation marker CD69 are downstream events that occur upon activation of the TLR7 pathway. The following is a human whole blood assay that measures their induction in response to a TLR7 agonist.
Heparinized human whole blood was harvested from human subjects and treated with test TLR7 agonist compounds at 1 mM. The blood was diluted with RPMI 1640 media and Echo was used to predot 10 nL per well giving a final concentration of 1 uM (10 nL in 10 uL of blood). After mixing on a shaker for 30 sec, the plates were covered and placed in a 37° C. chamber for o/n=17 hrs. Fixing/lysis buffer was prepared (5×->1×in H2O, warm at 37° C.; Cat# BD 558049) and kept the perm buffer (on ice) for later use.
For surface markers staining (CD69): prepared surface Abs: 0.045 ul hCD14-FITC (ThermoFisher Cat # MHCD1401)+0.6 ul hCD19-ef450 (ThermoFisher Cat #48-0198-42)+1.5 ul hCD69-PE (cat# BD555531)+0.855 ul FACS buffer. Added 3 ul/well, spin1000 rpm for 1 min and mixed on shaker for 30 sec, put on ice for 30 mins. Stop stimulation after 30 minutes with 70 uL of prewarmed 1×fix/lysis buffer and use Feliex mate to resuspend (15 times, change tips for each plate) and incubate at 37° C. for 10 minutes.
Centrifuge at 2000 rpm for 5 minutes aspirate with HCS plate washer, mix on shaker for 30 sec and then wash with 70 uL in dPBS and pelleted 2 xs (2000 rpm for 5 min) and 50 ul wash in FACS buffer pelleted 1 xs(2000 rpm for 5 min). Mix on shaker for 30 sec. For Intracellular markers staining (MX-1): Add 50 ul of BD Perm buffer III and mix on shaker for 30 sec. Incubate on ice for 30 minutes (in the dark). Wash with 50 uL of FACS buffer 2×(spin @2300 rpm×5 min after perm) followed by mixing on shaker for 30 sec. Resuspended in 20 ul of FACS buffer containing MX1 antibody ( )(4812)-Alexa 647: Novus Biologicals #NBP2-43704AF647) 20 ul FACS bf+0.8 ul hlgG+0.04 ul MX-1. Spin 1000 rpm for 1 min, mix on shaker for 30 se and the samples were incubated at RT in the dark for 45 minutes followed by washing 2×FACS buffer (spin @2300 rpm×5 min after perm). Resuspend 20 ul (35 uL total per well) of FACS buffer and cover with foil and place in 4° C. to read the following day. Plates were read on iQuePlus. The results were loaded into toolset and […] curves are generated in curve master. The y-axis 100% is set to 1 uM of resiquimod.

Row | SMILES | pEC50
41 | CCC[C@@H](CCO)Nc1nc(N)nc2cnn(Cc3ccc(CN4CC5(C4)CN(C(C)=O)C5)cc3OC)c12 [Compound 101] | 8.35
42 | CCCCNc1nc(N)nc2cnn(Cc3ccc(CN4CC5(COC5)C4)cc3OC)c12 [Compound 103] | 7.87
43 | CCC[C@@H](CCO)Nc1nc(N)nc2cnn(Cc3ccc(CN4CC5(C4)CN(C(=O)C4CCC4)C5)cc3OC)c12 [Compound 106] | 7.60
44 | CCC[C@@H](CCO)Nc1nc(N)nc2cnn(Cc3ccc(CN4CC5(C4)CN(C(=O)C4(C)CC4)C5)cc3OC)c12 [Compound 107] | 8.00
45 | COc1cc(CN2CC3(C2)CN(C(C)=O)C3)ccc1Cn1ncc2nc(N)nc(NCC3CC4(CC4)C3)c21 [Compound 108] | 7.28
46 | CCCCNc1nc(N)nc2cnn(Cc3ccc(CN4CC5(C4)CN(C(=O)C4(C)CC4)C5)cc3OC)c12 [Compound 111] | 7.60
47 | CCC[C@@H](CCO)Nc1nc(N)nc2cnn(Cc3ccc(CN4CC5(CCO5)C4)cc3OC)c12 [Compound 112] | 6.48
48 | CCC[C@@H](CCO)Nc1nc(N)nc2cnn(Cc3ccc(CN4CC5(CCOCC5)C4)cc3OC)c12 [Compound 113] | 9.30
49 | COc1cc(CN2CC3(C2)CN(C(C)=O)C3)ccc1Cn1ncc2nc(N)nc(NCc3cc(C)on3)c21 [Compound 212] | 7.21
